Experimental data reported in ChEMBL document CHEMBL1144799, “Synthesis, antiviral activity, and conformational studies of a P3 aza-peptide analog of a potent macrocyclic tripeptide HCV protease inhibitor” (Bioorg Med Chem Lett, 2008).

Experiments:
Hepatitis C virus = experiment: Antiviral activity against HCV replicon; type: functional, organism-based, Hepacivirus hominis
[1] = Inhibition of HCV NS3-4A protease; design: species or system Hepacivirus hominis

EC50 (Hepatitis C virus) | IC50 [1] | Compound
53 µM | 2.1 µM | C=C[C@@H]1C[C@]1(NC(=O)[C@@H]1C[C@@H](Oc2cc(-c3ccccc3)nc3cc(OC)ccc23)CN1C(=O)N(CC(C)C)NC(=O)OC(C)(C)C)C(=O)O
– | 3.5 µM | C=C[C@@H]1C[C@]1(NC(=O)[C@@H]1C[C@@H](Oc2cc(-c3ccccc3)nc3cc(OC)ccc23)CN1C(=O)N(NC(=O)OC(C)(C)C)C1CCCCC1)C(=O)O
31 µM | 3.8 µM | COc1ccc2c(O[C@@H]3C[C@H]4C(=O)N[C@]5(C(=O)O)C[C@H]5/C=C\CCCCCN(NC(=O)OC(C)(C)C)C(=O)N4C3)cc(-c3ccccc3)nc2c1

Continued, compound first:

Compound | EC50 (Hepatitis C virus) | IC50 [1]
COc1ccc2c(O[C@@H]3C[C@H]4C(=O)N[C@]5(C(=O)O)C[C@H]5/C=C\CCCCC[C@H](NC(=O)OC(C)(C)C)C(=O)N4C3)cc(-c3ccccc3)nc2c1 | 0.077 µM | 0.011 µM
COc1ccc2c(O[C@@H]3C[C@H]4C(=O)N[C@]5(C(=O)O)C[C@H]5/C=C\CCCCC[C@H](NC(=O)OC5CCCC5)C(=O)N4C3)cc(-c3csc(NC(C)C)n3)nc2c1 [CILUPREVIR] | 0.0012 µM | 0.003 µM
